The record followed here is PubChem BioAssay (NCI).

SMILES strings stand for the structures.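 Where inhibition never reached the appropriate level, the endpoint shown equals the highest concentration tested. Otherwise, values were interpolated linearly from a five-concentration, 48-hour dose response in 96-well plates. At the GI50, growth is halved. TGI: total growth inhibition.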

Holding throughout (assay): growth of human tumour cells (NCI), 48 h
The subject of assay [1] is ACHN renal.
In assay [2] the test system is M14 melanoma.
In assay [3] the test system is SK-OV-3 ovarian.
Assay [4] has as its system U251 CNS.
Assay [5] relates to MOLT-4 leukemia.
Assay [6] deals with LOX IMVI melanoma.
The test system of assay [7] is OVCAR-5 ovarian.
Assay [8] relates to SR leukemia.
Assay [9] has as its system HT29 colon.
The subject of assay [10] is HOP-92 NSCLC.

With `Cc1ccc(C2C3=C(N=c4s/c(=C/c5ccc(Br)cc5)c(=O)n42)c2ccc4ccccc4c2OCC3)cc1` (stereo unspecified), the GI50 in assay [1], in assay [2], in assay [3], in assay [4], in [5] and in [6] was above 100 µM each time. For the same molecule, the GI50 in assay [7] was above 100 µM; in [8] it was above 100 µM; in assay [9] it was 67.8 µM; in assay [10], above 100 µM. Moreover, the TGI in assay [1], in assay [2], in assay [3], in assay [4], in assay [5] and in assay [6] was above 100 µM each time. In addition, the TGI in assay [7], in assay [8], in assay [9] and in [10] was above 100 µM each time.
On to `C(=C\c1nccc2c1[nH]c1ccccc12)/c1ccccc1`, for which the GI50 in [1] was 4.82 µM; in assay [2] it was 2.91 µM; in [3], 2.97 µM; in assay [4] it was 3.26 µM; in assay [5] it was 2.84 µM; in assay [6], 2.99 µM. The GI50 was 3.04 µM in [7], 1.11 µM in assay [8], 3.07 µM in assay [9] and 2.19 µM in assay [10]. For the same molecule, the TGI is 20.8 µM in assay [1]; above 100 µM in assay [2]; 13.4 µM in assay [3]; 13.7 µM in assay [4]; 22.3 µM in [5]; 12.2 µM in assay [6]. The TGI in assay [7] was above 100 µM; in assay [8], 6.84 µM; in assay [9], 11.9 µM; in [10] it was 19.8 µM.
Take `O=C(Nc1cccc(O)c1)c1cccc(NC2=C(Cl)C(=O)N(Cc3ccccc3)C2=O)c1`: the GI50 in assay [1] was 17.9 µM; in assay [2] it was 20.5 µM; in [3], 18.6 µM; in assay [4], 13.7 µM; in assay [5], 1.04 µM; in assay [6], 11.1 µM. In addition, the GI50 in assay [7] is 12.1 µM; in assay [8], 0.315 µM; in assay [9], 22.2 µM; in assay [10], 11.7 µM. Also, the TGI in assay [1] is 33.1 µM; in assay [2], 40 µM; in [3], 34.6 µM; in assay [4] it was 26.6 µM; in [5], above 100 µM; in assay [6] it was 23.1 µM. For the same molecule, the TGI in [7] turned out to be 28 µM; in assay [8], 3.36 µM; in [9] it was 49.7 µM; in assay [10] it was 29.4 µM.
Take `NC(=S)N/N=C\c1nccc2c(N)cccc12`: the GI50 is 0.0977 µM in assay [1]; 0.153 µM in assay [2]; 0.541 µM in assay [3]; 0.237 µM in assay [4]; 0.235 µM in [5]; 0.292 µM in assay [6]. In addition, the GI50 in [7] was 1.14 µM; in assay [8], 0.0398 µM; in [9], 0.454 µM; in assay [10], 0.233 µM. For the same molecule, the TGI in [2] was 0.317 µM; in assay [3], above 100 µM; in [5], above 100 µM; in assay [7], above 100 µM; in assay [8], above 35.8 µM; in assay [9], above 100 µM. The same molecule displayed a TGI in assay [10] above 100 µM.
As for `O=S(=O)(NCCNc1cc(-c2cn(-c3ccccc3)nc2-c2cccc(O)c2)ccn1)c1ccc(Cl)cc1`, the GI50 in [1] is 2.63 µM; in assay [2], 2.54 µM; in assay [3], 3.62 µM; in [4] it was 3.21 µM; in assay [5], 2.51 µM; in assay [6], 1.76 µM. In addition, the GI50 in assay [7] is 2.66 µM; in [8], 1.71 µM; in [9], 2.24 µM; in assay [10], 2.34 µM. The TGI in assay [1] came out at 10.3 µM; in assay [2], 8.61 µM; in assay [3], 19.6 µM; in [4] it was 11.4 µM; in assay [5], 7.37 µM; in assay [6] it was 3.56 µM. Besides, the TGI in assay [7] stood at 11 µM; in assay [8], 5.07 µM; in assay [9], 5.21 µM; in assay [10], 8.35 µM.
With `O=S(=O)(O)/C(=C\c1ccccc1)c1ccccc1` (tested in a mixture with another compound), the TGI in [1], in assay [2], in assay [3], in assay [4], in assay [5] and in assay [6] was above 100 µM in each case. Moreover, the TGI in assay [7], in assay [8], in assay [9] and in assay [10] was above 100 µM throughout.
Take `C/C1=C\C/C=C(\C)[C@H]2CC(CC/C(C)=C/CC1)[C@](C)(C=O)O2`: the GI50 in [1] was above 100 µM; in [2] it was 51.9 µM; in assay [3], above 100 µM; in [4] it was 43.9 µM; in [5], 21 µM; in [6] it was 22.2 µM. Besides, the GI50 is above 100 µM in [7], 16.3 µM in [8], above 100 µM in assay [9] and 39.8 µM in assay [10]. Besides, the TGI is above 100 µM in assay [1]; above 100 µM in assay [2]; above 100 µM in assay [3]; above 100 µM in [4]; above 100 µM in assay [5]; 48.5 µM in assay [6]. The TGI in assay [7] was above 100 µM; in [8] it was 35.5 µM; in assay [9] it was above 100 µM; in [10], above 100 µM.
Turning to `C#C[C@H](CCCC)OC(=O)N[C@H](C)c1ccccc1`, the TGI in assay [1] is above 100 µM; in [2], above 100 µM; in [3], above 100 µM; in assay [4], above 100 µM; in [5], 94.8 µM; in assay [6], 87.8 µM. The TGI was 99 µM in assay [7], 99.4 µM in assay [8], above 100 µM in assay [9] and above 100 µM in [10].
Consider `COc1ccc(CC(NC(=O)[C@H](C)NC(=O)CN2CCOCC2)C(=O)N[C@@H](Cc2ccccc2)C(=O)[C@@]2(C)CO2)cc1` (stereo partly specified), for which the GI50 was 0.801 µM in assay [1]; 0.284 µM in [2]; 0.392 µM in assay [3]; 0.271 µM in assay [4]; 0.0572 µM in assay [5]; 0.148 µM in [6]. Moreover, the GI50 in assay [7] was 0.272 µM; in [8], 0.064 µM; in assay [9], 0.339 µM; in [10], 0.227 µM. For the same molecule, the TGI in assay [1] is above 33.5 µM; in assay [2], 2.5 µM; in assay [3], 1.77 µM; in assay [4], 1.07 µM; in assay [6], 0.379 µM; in assay [7] it was 1.19 µM. Further, the results for the TGI in assay [9] and in assay [10] were above 33.9 µM and 0.758 µM, respectively.
Turning to `COc1cc(NCc2ccccc2O)c2ncccc2c1`, the GI50 in assay [1] was 26.8 µM; in [2] it was 19 µM; in assay [3] it was 20.2 µM; in assay [4], 23.7 µM; in assay [5], 18.9 µM; in assay [6], 17.1 µM. Besides, the GI50 in assay [7] was 80.3 µM; in assay [8], 5.91 µM; in assay [9], 19.4 µM; in assay [10] it was 3.83 µM. Further, the TGI is above 100 µM in assay [1]; 53.6 µM in assay [2]; 50 µM in assay [3]; above 100 µM in assay [4]; above 100 µM in assay [5]; 67.3 µM in assay [6]. In addition, the TGI in assay [7] is above 100 µM; in [8] it was 58.3 µM; in assay [9] it was 94.1 µM; in assay [10], 30.3 µM.
`O=C(O)c1cc(Cc2ccc(O)c(C(=O)O)c2)ccc1O` (tested in a mixture with another compound): the GI50 in [1] was 11 µM; in assay [2], 5.28 µM; in assay [3], 11.4 µM; in assay [4] it was 9.44 µM; in assay [5] it was 2.66 µM; in assay [6], 2.99 µM. Also, the GI50 is 11.5 µM in [7], 1.41 µM in assay [8], 2.98 µM in assay [9] and 1.21 µM in assay [10]. Moreover, the TGI is 24.8 µM in assay [1]; 21.8 µM in [2]; 24.6 µM in assay [3]; 27.7 µM in [4]; above 100 µM in [5]; 15.7 µM in assay [6]. The TGI stood at 27.1 µM in [7], 8.67 µM in assay [8], 10.4 µM in [9] and 6.3 µM in [10].
Regarding `CC(=O)OC1CCC2(C)C(=CCC3C4CCC5(OC6CC(C)CN(C(C)=O)C6C5C)C(C)=C4C(=O)C32)C1` (stereo unspecified), the TGI in assay [1] was 67 µM; in assay [2] it was 28.9 µM; in [3], 66.8 µM; in [4], 30.8 µM; in assay [5], 23.6 µM; in assay [6], 24.4 µM. For the same molecule, the TGI in assay [7] is 46.6 µM; in [8], 40.8 µM; in assay [9], 43.8 µM; in assay [10], 28.9 µM.
As for `Cc1cccc(C)c1NC(=O)CCC(=O)NC(N)=S`, the TGI in assay [1], in assay [2], in [3], in assay [4], in assay [5] and in assay [6] was above 100 µM each time. Moreover, the TGI in assay [7], in [8], in assay [9] and in assay [10] was above 100 µM in each case.
On to `COc1cc(C2=NN(c3ccc(S(N)(=O)=O)cc3)C(c3ccc(Cl)cc3)C2)cc(OC)c1OC` (stereo unspecified), for which the GI50 was 2.62 µM in assay [1]; 4.8 µM in [2]; 6.91 µM in assay [3]; 3.84 µM in [4]; 4.81 µM in assay [5]; 5.15 µM in [6]. For the same molecule, the GI50 in assay [7] was 3.69 µM; in assay [8] it was 4.37 µM; in assay [9] it was 4.15 µM; in assay [10] it was 2.02 µM. In addition, the TGI in assay [1] is 9.27 µM; in [2] it was above 100 µM; in assay [3], above 100 µM; in assay [4], above 100 µM; in [5], above 100 µM; in assay [6] it was above 100 µM. Moreover, the TGI is above 100 µM in assay [7], above 100 µM in [8], above 100 µM in assay [9] and 14.5 µM in [10].
Regarding `CC(CN1CCN(CC(C)Nc2ccnc3cc(Cl)ccc23)CC1)Nc1ccnc2cc(Cl)ccc12` (stereo unspecified), the TGI in assay [1] is 64.6 µM; in assay [2], 10.5 µM; in assay [3] it was 76.7 µM; in assay [4], 42.2 µM; in [5], above 100 µM; in [6], 8.19 µM. Besides, the TGI in assay [7] is above 68.6 µM; in assay [8] it was 7.45 µM; in [9] it was above 53.8 µM; in assay [10], 13.2 µM. Besides, in [10], the GI50 was 1.59 µM.
Take `CC(O)C(O)C(O)C(/C=N\Nc1ccccc1)=N/Nc1ccccc1` (stereo unspecified): the TGI came out at 25.3 µM in assay [1]; 27.9 µM in assay [2]; 29.7 µM in assay [3]; 27.2 µM in [4]; 69.5 µM in [5]; 18.1 µM in [6]. For the same molecule, the TGI in [7] was determined as 27.5 µM; in [8], 41.9 µM; in [9] it was 30.8 µM; in [10], 36 µM.
As for `C[C@]12C3CC[C@@]4(CO)C[C@]3(CCC1[C@](C)(C(=O)O)CC[C@@H]2O)CC4=O` (stereo partly specified), the GI50 in assay [1], in assay [2], in assay [3], in assay [4], in assay [5] and in assay [6] was above 100 µM throughout. Further, the GI50 in assay [7], in assay [8], in assay [9] and in [10] was above 100 µM in each case. Further, the TGI in assay [1], in assay [2], in assay [3], in assay [4], in assay [5] and in [6] was above 100 µM throughout. The TGI in [7], in [8], in assay [9] and in assay [10] was above 100 µM throughout.
